Seven compounds from ChEMBL document CHEMBL1201862, “PubChem BioAssay data set” (2004) can be followed below.

A short description of assay [1]: A2780 ovarian cancer cell cytotoxicity, dose response, cytotoxicity control, plate reader, dry powder samples (AID 743046). Type of assay: functional, cell-based.
Assay [2] is described as follows: non-specific cell cytotoxicity, dose response, cytotoxicity control for PAX8 inhibitor project, plate reader, dry powder samples (AID 743021). Type of assay: functional, cell-based.
The next assay has as its target Paired box protein Pax-8 (Homo sapiens, UniProt Q06710). Kind of assay: inhibitors of PAX8-driven TPO luciferase reporter, dose response, RMG-I cells, cherry-pick (AID 687027).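 Note: luciferase reporter driven by Pax8 target thyroperoxidase promoter measured by SteadyGlo luminescence.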 Type of assay: functional, cell-based. (In a reporter assay the amount or activity of a reporter protein is the signal.)
Assay [3] is described as follows: IOSE-T80 ovarian epithelial cell cytotoxicity, dose response, cytotoxicity control for PAX8 inhibitor project, plate reader, dry powder samples (AID 743045). Type of assay: functional, cell-based.
The nature of assay [4]: NIH:OVCAR-3 ovarian cancer cell cytotoxicity, dose response, PAX8 inhibitor project, plate reader, dry powder samples (AID 743044). The class given is functional, cell-based.
Assay [5] in a line: cytotoxicity in OVCAR8 ovarian cancer cells, dose response, PAX8 project, cell-based, plate reader, dry powder samples (AID 743197). Type of assay: functional. The following applies: OVCAR-8.
Assay [6] can be described thus: cytotoxicity in COV434 cells, dose response, cytotoxicity control for PAX8 inhibitor project, cell-based, plate reader, dry powder, SA7 (AID 743145). Type of assay: functional.
Assay [7] in a line: cytotoxicity in COV362 ovarian cancer cells, dose response, cytotoxicity control for PAX8 inhibitor project, cell-based, plate reader, dry powder, SA12 (AID 743144). Type of assay: functional.
Assay [8] is described as follows: cytotoxicity dependent on PAX8, dose response, cell-based, plate reader, dry powder (AID 743049). The class given is functional.
A short description of assay [9]: PAX2 cell-based inhibition, dose response, selectivity assay for PAX8 inhibitor project, plate reader, dry powder samples (AID 743048).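 Note: HEK293 cells carrying a WT1 promoter luciferase reporter driven by expressed Pax2; potency is for inhibition of Pax2 driven reporter signal.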 The class given is functional.
Assay [10] is described as follows: PAX5 activity inhibitors, dose response, selectivity assay for PAX8 inhibitor project, cell-based, plate reader, dry powder samples (AID 743047).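 Note: HEK293 cells carrying a Pax5 driven CD19 promoter luciferase reporter; potency of inhibitors that lower reporter luminescence.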 Type of assay: functional.
The nature of assay [11]: cytotoxicity in OV-90 ovarian cancer cells, dose response, PAX8 inhibitor project, cell-based, plate reader, dry powder, SA8 (AID 743149). Type of assay: functional.
The target of another assay is T1, Protein Tat (Human immunodeficiency virus type 1 group M subtype B (isolate HXB2)(HIV-1), UniProt P04608).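 Note: tat binding to TAR RNA read out by fluorescence polarization.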
T1 sequence (P04608 whole entry): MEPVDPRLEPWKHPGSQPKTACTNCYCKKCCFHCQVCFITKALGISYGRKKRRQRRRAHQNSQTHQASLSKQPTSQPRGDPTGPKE
Type of assay: functional.

The target of assay [12] is Glutathione-S-transferase (Schistosoma japonicum, UniProt Q26513). Kind of assay: biotin-GST/anti-GST TR-FRET signal inhibitors, dose response, artefact control for Vif-APOBEC3G degradation inhibitor project, biochemical (AID 1117362). Type of assay: functional.
Chain of Glutathione-S-transferase (Q26513 whole entry): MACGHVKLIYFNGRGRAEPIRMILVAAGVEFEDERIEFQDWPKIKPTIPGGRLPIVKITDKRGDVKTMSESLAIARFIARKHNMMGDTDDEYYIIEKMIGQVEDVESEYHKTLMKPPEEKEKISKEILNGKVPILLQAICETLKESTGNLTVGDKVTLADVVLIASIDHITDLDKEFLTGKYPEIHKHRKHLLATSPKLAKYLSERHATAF
Another assay deals with Large T antigen (Simian virus 40, UniProt P03070). Type of assay: functional, Betapolyomavirus macacae.
Chain of Large T antigen (P03070 whole entry): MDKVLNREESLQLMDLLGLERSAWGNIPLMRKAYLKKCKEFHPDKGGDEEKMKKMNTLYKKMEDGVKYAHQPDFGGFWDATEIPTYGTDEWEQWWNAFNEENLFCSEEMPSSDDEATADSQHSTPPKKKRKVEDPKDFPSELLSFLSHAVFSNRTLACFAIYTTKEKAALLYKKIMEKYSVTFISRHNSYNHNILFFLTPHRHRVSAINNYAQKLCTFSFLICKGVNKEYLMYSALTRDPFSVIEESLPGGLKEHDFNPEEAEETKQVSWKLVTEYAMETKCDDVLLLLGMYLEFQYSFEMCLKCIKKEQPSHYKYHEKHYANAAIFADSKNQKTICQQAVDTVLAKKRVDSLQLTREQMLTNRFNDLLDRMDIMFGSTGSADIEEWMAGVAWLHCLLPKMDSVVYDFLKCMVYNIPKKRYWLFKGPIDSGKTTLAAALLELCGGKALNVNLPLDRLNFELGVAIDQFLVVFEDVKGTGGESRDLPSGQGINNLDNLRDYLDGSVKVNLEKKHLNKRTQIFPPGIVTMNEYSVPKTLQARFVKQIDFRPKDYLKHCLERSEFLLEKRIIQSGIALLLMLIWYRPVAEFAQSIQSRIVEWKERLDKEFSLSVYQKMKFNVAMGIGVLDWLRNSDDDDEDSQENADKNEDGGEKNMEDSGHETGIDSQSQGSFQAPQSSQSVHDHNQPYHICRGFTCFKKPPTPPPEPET
Assay [13] deals with NAD-dependent protein deacylase sirtuin-5, mitochondrial (Homo sapiens, UniProt Q9NXA8). Kind of assay: SIRT5 desuccinylase inhibitors, dose response, biochemical, fluorescence imaging, cherry-pick, set 5 (AID 720591).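 Note: desuccinylation of succinyl peptide AMC substrate read as fluorescence after trypsin release; potency of inhibitors that lower fluorescence and may act on trypsin instead.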
Chain of NAD-dependent protein deacylase sirtuin-5, mitochondrial (Q9NXA8 whole entry): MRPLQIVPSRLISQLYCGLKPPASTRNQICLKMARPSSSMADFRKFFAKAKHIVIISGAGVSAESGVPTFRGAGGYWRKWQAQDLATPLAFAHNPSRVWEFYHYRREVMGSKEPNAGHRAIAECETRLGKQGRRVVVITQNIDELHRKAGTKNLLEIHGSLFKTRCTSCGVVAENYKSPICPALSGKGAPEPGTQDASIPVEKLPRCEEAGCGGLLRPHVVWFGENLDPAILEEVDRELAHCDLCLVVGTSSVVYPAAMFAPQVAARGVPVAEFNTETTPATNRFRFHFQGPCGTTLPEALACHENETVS
A short description of assay [14]: growth inhibition of replicating M. tuberculosis, dose response, counter-screen, dry powder, IC90 (AID 651617). The class given is functional. The settings on record: Mycobacterium tuberculosis. For orientation: The purpose of a counterscreen is to sort out artefacts and off-target activity.
Assay [15] can be described thus: inhibitors of non-replicating M. tuberculosis, dose response, luciferase, dry powder (AID 651619). Type of assay: functional. The following applies: Mycobacterium tuberculosis.
Assay [16] can be described thus: inhibitors of non-replicating M. tuberculosis, dose response, luciferase, dry powder (AID 651620). Type of assay: functional. The settings on record: Mycobacterium tuberculosis.
The next assay deals with Kallikrein-7 (Homo sapiens, UniProt P49862). Kind of assay: Fluorescence Intensity-based biochemical primary high throughput dose response assay to identify activators of kallikrein-7 (K7) zymogen.
Chain of Kallikrein-7 (P49862 whole entry): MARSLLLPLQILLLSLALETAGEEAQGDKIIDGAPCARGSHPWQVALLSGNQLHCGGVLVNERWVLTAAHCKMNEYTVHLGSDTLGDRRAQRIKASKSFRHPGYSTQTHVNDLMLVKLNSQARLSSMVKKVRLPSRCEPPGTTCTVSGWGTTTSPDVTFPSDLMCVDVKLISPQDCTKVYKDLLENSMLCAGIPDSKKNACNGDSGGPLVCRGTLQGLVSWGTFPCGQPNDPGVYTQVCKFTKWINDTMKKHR
A short description of assay [17]: A549 cell cytotoxicity, dose response, cytotoxicity control, 24 h, CellTiter-Glo luminescence, cherry-picks (AID 1053115). The settings on record: A549, 24 h. Type of assay: functional, cell-based.

Calls of active or inactive are those of the source.

Chain of Paired box protein Pax-8 (Q06710 whole entry): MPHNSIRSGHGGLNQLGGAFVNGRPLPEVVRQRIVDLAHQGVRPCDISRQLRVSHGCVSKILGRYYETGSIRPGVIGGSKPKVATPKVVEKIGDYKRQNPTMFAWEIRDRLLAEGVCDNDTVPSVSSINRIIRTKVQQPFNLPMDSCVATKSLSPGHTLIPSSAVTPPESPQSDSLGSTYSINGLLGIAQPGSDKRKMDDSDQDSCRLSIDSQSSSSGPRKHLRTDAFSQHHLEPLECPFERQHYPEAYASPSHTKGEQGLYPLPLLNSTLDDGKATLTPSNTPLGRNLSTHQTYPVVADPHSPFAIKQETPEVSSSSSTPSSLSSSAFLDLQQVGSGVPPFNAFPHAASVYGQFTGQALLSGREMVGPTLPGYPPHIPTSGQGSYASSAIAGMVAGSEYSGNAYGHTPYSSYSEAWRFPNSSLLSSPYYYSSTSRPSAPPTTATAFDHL

In general, AC50 refers to the midpoint of the concentration-response curve, whichever way the signal moves. Regarding `COc1ccc(NC(=O)N2CCCCN3[C@@H](CO)[C@@H](c4ccc(C#Cc5ccccc5)cc4)[C@@H]3C2)cc1`, the concentration at half-maximal activity (AC50) was 22.2 µM (active) in assay [1]; 42.1 µM (active) in assay [2]; 14.9 µM (active) on Paired box protein Pax-8; 37.1 µM (active) in [3]; 23.3 µM (active) in assay [4]; 40.1 µM (active) in [5].

As for `O=C(N1CCCCC1)[C@@]1(CCS(=O)(=O)c2ccccc2)N=C(c2ccc(OCCCO)cc2)O[C@H]1c1ccccc1`, the AC50 in assay [6] is > 100 µM (inactive); in [1] it was 32.1 µM (active); in assay [7] it was > 100 µM (inactive); in assay [8], 87.1 µM (active); in [9] it was 49.5 µM (active); in [4] it was 64.6 µM (active). Besides, the AC50 in assay [10] is 41.9 µM (active); in assay [11] it was > 100 µM (inactive).

For orientation: IC50 means the concentration needed to halve the response being measured. Consider `CC(=O)N1CCN(c2ccc(NCc3ccc(C)s3)cc2)CC1`, for which the 50% inhibitory concentration (IC50) on Protein Tat was > 100 µM (active); in [12], 29.7 µM (active); at Large T antigen, 3.48 µM (active).

Take `CCOC(=O)C1=CCN(S(=O)(=O)c2ccc(C)cc2)C1c1cccc(Br)c1` (configuration not stated): in [13], the AC50 was > 30 µM (inactive).

The term IC90 denotes the concentration at which the effect reaches the 90% level. Turning to `[N-]=[N+]=NCCOCCNC(=O)CCCOc1ccc(CSc2nnc(-c3ccc(Cl)cc3)o2)nc1`, the concentration for an effect of 90% (IC90) was 62 µM (active) in assay [14], 8 µM (active) in [15] and 8 µM (active) in [16].

The EC50 is the midpoint of the concentration-response curve. Take `Cc1oc2c(CN3CCCCC3)c(O)ccc2c(=O)c1-c1ccc(Br)cc1`: the EC50 on Kallikrein-7 is 9.73 µM (active).

For `COc1ccccc1-c1ccc2c(c1)[C@H]1[C@H](CCN1C(=O)C1CCCCC1)[C@@H](CO)N2`, the AC50 was 42.1 µM (active) in assay [17]; 5.38 µM (active) in [1]; 9.8 µM (active) at Paired box protein Pax-8; 18.7 µM (active) in assay [4]; 30.4 µM (active) in assay [5].
